Entries after “also recorded” stand apart in the source; their conditions may differ. Structures can show the parent of a compound that is named as a salt. Where two headings read alike, the source gives them in different places.
Columns and labels:
[1] = target: T1, Bovine pancreatic trypsin (Bos taurus, UniProt P00760); experiment: biochemical; type: biochemical
T1 construct: purchased Sigma Aldrich; host or cells: bovine pancreas
T1 sequence (P00760 24-246): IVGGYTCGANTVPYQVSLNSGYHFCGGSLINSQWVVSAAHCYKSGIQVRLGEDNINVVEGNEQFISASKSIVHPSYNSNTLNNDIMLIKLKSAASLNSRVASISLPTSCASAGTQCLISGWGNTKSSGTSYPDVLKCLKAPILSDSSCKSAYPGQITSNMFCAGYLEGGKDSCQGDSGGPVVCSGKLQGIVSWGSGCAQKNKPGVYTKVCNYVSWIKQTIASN

DEN2V NS2B-NS3pro [2] = target: T2, DEN2V NS2B-NS3pro (Dengue virus type 2, UniProt Q91H74); experiment: Steady-state kinetics of inhibitors of DEN2V NS2B-NS3pro (Boc-GRR-AMC substrate, Dynafit); type: biochemical, Dengue 2 virus
T2 sequence (Q91H74 entry or part of it, added parts left off): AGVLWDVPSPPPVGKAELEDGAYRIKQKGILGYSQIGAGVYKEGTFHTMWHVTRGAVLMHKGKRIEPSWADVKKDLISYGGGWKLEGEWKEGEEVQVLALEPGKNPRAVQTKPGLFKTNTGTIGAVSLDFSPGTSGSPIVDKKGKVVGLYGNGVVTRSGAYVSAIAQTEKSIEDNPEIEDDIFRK
T2 sequence (Q91H74 entry or part of it partner, added parts left off): as the sequence (Q91H74 entry or part of it, added parts left off) above

physchem = details: pH 9, aqueous with cosolvent or surfactant or cyclodextrin, kinetic from dmso stock
[3] = target: T1, Bovine pancreatic trypsin; experiment: Trypsin inhibition assay with chromogenic BAPNA substrate; type: biochemical; details: analog at 100 μM
Protocol: Bovine pancreatic trypsin (Sigma Aldrich, St. Louis) and N-α-Benzoyl-DL-arginine 4-nitroanilide hydrochloride (BAPNA) substrate (Sigma Aldrich, St. Louis) were used for trypsin inhibition assays. Trypsin stock solutions were prepared in sodium phosphate buffer (67 mM [pH 7.6]). Trypsin (60 μM) was incubated with chromogenic BAPNA (500 μM) and release of the para-nitroanilide product monitored using a DU640 spectrophotometer (Beckman Coulter, USA) to measure absorption at 415 nm. The slope of the progress curve was determined using linear regression and used as a baseline for comparison with inhibitor reactions.

[4] = pH 9
WNV NS2B-NS3pro = WNV NS2B-NS3pro (West Nile virus, UniProt P06935); experiment: Steady-state kinetics of inhibitors of WNV NS2B-NS3pro; type: biochemical
Chain of WNV NS2B-NS3pro (P06935 1502-1679 limits assumed): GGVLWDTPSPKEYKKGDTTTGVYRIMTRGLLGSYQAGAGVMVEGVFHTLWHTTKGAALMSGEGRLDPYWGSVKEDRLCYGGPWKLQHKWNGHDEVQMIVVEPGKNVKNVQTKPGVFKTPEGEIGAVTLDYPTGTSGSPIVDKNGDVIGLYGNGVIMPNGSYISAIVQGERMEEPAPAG
Chain of WNV NS2B-NS3pro (P06935 1424-1463 partner limits assumed): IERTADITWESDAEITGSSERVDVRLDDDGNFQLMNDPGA

DEN2V NS2B-NS3pro [5] = target: T2, DEN2V NS2B-NS3pro; experiment: Preliminary DEN2V NS2B-NS3pro inhibition assay; type: biochemical, Dengue 2 virus; details: 100 nM protease, 100 μM Boc-GRR-AMC, 30 min at 25° C.; aprotinin at 100 μM
DENV; WNV protease = type: biochemical, Dengue virus; West Nile virus
cells = details: Yip et al., 2006; cited from earlier work
[6] = Ki1 (from biochemical protease inihibition experiments) West Nile virus NS2B-NS

## O=C1c2c(O)ccc([N+](=O)[O-])c2C(=O)c2c([N+](=O)[O-])ccc(O)c21 [ARDP0006, reference compound]
[1]
  Mechanism (trypsin inhibition): uncompetitive trypsin inhibitor
[1]; Ki2 trypsin
  Ki: 13 µM
DEN2V NS2B-NS3pro [2]; Ki1, Table 4, ARDP0006 analogs, DEN2V NS2B-NS3pro
  Ki: 432 ± 46 µM
DEN2V NS2B-NS3pro [2]; Table 4, ARDP0006 analogs, DEN2V NS2B-NS3pro
  Mechanism: competitive inhibition model
physchem
  solubility: > 10 µM
[3]
  Inhibition of trypsin cleavage of the chromogenic substrate: not the chromogenic substrate

## O=P(=O)c1ccc(OC2OCC(O)C(O)C2O)cc1 (stereo not drawn) [Compound 6A31]
[4]
  solubility: NS (key: compounds soluble in aqueous buffer were indicated with “S”; insoluble compounds indicated with “NS.”)

## O=C1c2c(O)cccc2Cc2cccc(O)c21 [Compound 6A45]
WNV NS2B-NS3pro; [6]
  Ki: 2 µM
[1]
  Mechanism (trypsin inhibition): competitive trypsin inhibitors; also recorded: inhibited both the DEN2V NS2B-NS3 protease and trypsin
[1]; Ki1 trypsin
  Ki: 0.6 ± 0.07 µM
physchem
  solubility: > 10 µM
DEN2V NS2B-NS3pro [5]
  Inhibition of DEN2V NS2B-NS3pro in the preliminary inhibition assay: significant inhibition

## O=[N+]([O-])c1ccc(N=Nc2ccc(O)c3ccccc23)c([N+](=O)[O-])c1 [Compound 6A49]
WNV NS2B-NS3pro; [6]
  Ki: 34 µM
WNV NS2B-NS3pro; WNpro Ki1
  Ki: 34 µM
[1]
  Mechanism (trypsin inhibition): did not inhibit trypsin; also recorded: No inhibition
physchem
  solubility: > 10 µM
DEN2V NS2B-NS3pro [5]
  Inhibition of DEN2V NS2B-NS3pro in the preliminary inhibition assay: significant inhibition
DENV; WNV protease
  Protease inhibited in Knock-down: DENV; WNV

## COc1cc(O)c2c(=O)c3c(O)ccc(OCl)c3oc2c1 [Compound 6A63]
physchem
  solubility: < 10 µM
[4]
  Solubility in the kinetic reaction buffer: not soluble

## CCCCC(CC)CNC(=N)NC(=N)NCCCCCCNC(=N)NC(=N)NCC(CC)CCCC (stereo not drawn) [MS28, Alexidine hydrochloride, reference compound]
WNV NS2B-NS3pro; Ki1, Table 2, WNV NS2B-NS3pro
  Ki: 12 µM
WNV NS2B-NS3pro; Ki2, Table 2, WNV NS2B-NS3pro
  Ki: 28 ± 5 µM
WNV NS2B-NS3pro; Table 2, WNV NS2B-NS3pro
  Mechanism: Mixed
DEN2V NS2B-NS3pro [2]; Ki1, Table 1, DEN2V NS2B-NS3pro
  Ki: 41 ± 3 µM
DEN2V NS2B-NS3pro [2]; Ki2, Table 1, DEN2V NS2B-NS3pro
  Ki: 84 ± 16 µM
DEN2V NS2B-NS3pro [2]; Table 1, DEN2V NS2B-NS3pro, HTS-identified hits
  Mechanism: Mixed
cells
  ED50 (cell viability reduced by 50%): low micromolar

Source: patent US8778876B2, “Small-molecule inhibitors of Dengue and West Nile virus proteases” (The Board of Regents of the University of Texas System, priority 2011, dated 2014)
